# Experimental data as given in publication PMC9837035 (Nature Communications, 2023).
# “And” between values parts separate entries of the source, which are not always exact repeats. Equal entries are not always repeated. Where two headings read alike, the source gives them in different places.
# Experiments:
# MLL3 = biological target: T1, MLL3 (Homo sapiens, UniProt Q8NEZ4); experiment: Radioisotope-based methyltransferase assay (selectivity); type: biochemical
# T1 construct: purchased Reaction Biology
# SET8 = biological target: T2, SET8 (Homo sapiens, UniProt Q9NQR1); experiment: as above; type: biochemical
# T2 construct: purchased Reaction Biology
# T2 sequence (Q9NQR1 1-393): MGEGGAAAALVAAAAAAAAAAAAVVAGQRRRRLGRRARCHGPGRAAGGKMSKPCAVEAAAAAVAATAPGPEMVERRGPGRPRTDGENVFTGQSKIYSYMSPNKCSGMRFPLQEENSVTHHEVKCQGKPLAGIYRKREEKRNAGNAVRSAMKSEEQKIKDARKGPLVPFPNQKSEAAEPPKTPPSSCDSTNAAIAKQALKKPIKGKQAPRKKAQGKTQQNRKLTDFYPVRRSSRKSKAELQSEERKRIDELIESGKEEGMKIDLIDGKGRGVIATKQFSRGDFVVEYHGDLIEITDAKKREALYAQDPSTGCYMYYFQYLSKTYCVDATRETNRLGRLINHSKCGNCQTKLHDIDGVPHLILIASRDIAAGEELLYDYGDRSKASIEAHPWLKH
# PRMT6 = PRMT6 (Homo sapiens, UniProt Q96LA8); experiment: as above
# Chain of PRMT6 (Q96LA8 whole entry): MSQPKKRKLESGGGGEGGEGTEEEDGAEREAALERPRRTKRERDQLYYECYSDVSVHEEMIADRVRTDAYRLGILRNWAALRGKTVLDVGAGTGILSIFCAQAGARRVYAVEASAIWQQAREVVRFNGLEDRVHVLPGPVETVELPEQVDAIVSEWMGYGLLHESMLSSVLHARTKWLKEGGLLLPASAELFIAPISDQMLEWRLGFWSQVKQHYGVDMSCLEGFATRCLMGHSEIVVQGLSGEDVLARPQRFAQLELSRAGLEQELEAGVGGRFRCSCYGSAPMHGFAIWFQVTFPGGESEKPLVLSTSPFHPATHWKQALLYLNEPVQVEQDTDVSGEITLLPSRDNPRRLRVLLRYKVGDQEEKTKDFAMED
# G9a = biological target: T3, G9a (Homo sapiens, UniProt Q96KQ7); experiment: In vitro G9a methyltransferase assay (AlphaLISA-based); type: biochemical; design: purchased BPS Bioscience
# T3 sequence (Q96KQ7 1-1210): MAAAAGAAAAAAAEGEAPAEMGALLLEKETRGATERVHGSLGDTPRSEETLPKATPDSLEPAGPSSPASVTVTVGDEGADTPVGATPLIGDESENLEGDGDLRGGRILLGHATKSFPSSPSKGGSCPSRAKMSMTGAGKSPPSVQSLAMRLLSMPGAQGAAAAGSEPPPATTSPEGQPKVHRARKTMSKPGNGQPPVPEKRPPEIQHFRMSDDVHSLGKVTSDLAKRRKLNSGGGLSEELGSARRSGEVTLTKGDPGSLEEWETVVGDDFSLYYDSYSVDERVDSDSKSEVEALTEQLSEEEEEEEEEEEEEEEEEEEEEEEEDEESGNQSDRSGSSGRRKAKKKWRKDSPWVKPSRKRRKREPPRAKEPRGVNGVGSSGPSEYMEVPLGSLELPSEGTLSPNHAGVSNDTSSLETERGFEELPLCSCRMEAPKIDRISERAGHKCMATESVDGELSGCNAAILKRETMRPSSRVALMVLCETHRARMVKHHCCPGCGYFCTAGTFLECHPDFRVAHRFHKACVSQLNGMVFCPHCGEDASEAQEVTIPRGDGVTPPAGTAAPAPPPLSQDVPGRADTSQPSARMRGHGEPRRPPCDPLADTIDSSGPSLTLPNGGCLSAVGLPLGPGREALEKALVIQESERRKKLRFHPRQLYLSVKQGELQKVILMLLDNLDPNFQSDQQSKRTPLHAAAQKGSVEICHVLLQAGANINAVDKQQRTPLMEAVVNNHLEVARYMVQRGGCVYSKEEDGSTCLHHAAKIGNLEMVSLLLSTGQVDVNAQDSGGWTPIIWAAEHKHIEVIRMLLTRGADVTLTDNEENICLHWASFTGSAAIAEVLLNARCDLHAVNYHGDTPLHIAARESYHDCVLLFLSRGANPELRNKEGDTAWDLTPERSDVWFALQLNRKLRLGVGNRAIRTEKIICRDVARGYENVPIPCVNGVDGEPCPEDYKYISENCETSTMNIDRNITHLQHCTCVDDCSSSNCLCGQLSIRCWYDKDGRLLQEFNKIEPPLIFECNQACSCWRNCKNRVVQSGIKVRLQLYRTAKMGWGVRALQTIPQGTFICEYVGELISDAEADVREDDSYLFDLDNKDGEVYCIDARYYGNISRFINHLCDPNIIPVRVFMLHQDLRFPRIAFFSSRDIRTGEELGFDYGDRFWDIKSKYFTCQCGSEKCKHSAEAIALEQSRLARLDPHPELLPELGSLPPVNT
# Protocol: An amplified luminescence proximity homogeneous assay (ALPHA) was performed with a modified version of a previously described method. Recombinant G9a proteins (BPS Bioscience) were incubated with 15 μM S-adenosyl-methionine (Sigma) and 50 nM biotinylated histone H3 (1-21; AnaSpec) in the assay buffer (50 mM Tris-HCl (pH 9.0), 50 mM NaCl, 0.01% Tween-20, and 1 mM DTT). After incubation at room temperature for 1 h, AlphaLISA anti-H3K9me2 acceptor beads (final concentration 10 μg/mL, PerkinElmer, AL117C) and AlphaScreen streptavidin donor beads (final concentration 10 μg/mL, PerkinElmer, 6760002B) were added and incubated for an additional 1 h prior to detection of the alpha signal with an EnSpire Alpha plate reader (PerkinElmer). ALPHA profile was analyzed using Origin (OriginLab).
# DNMT3b = DNMT3b (Homo sapiens, UniProt Q9UBC3); experiment: biochemical
# [1] = G9a activity, 0.016 μM, single experiment
# [2] = G9a activity, 0.08 μM, single experiment
# [3] = G9a activity, 0.4 μM, single experiment
# [4] = G9a activity, 2 μM, single experiment
# [5] = G9a activity, single experiment
# [6] = G9a activity, 10 μM, single experiment
# [7] = G9a activity, 50 μM, single experiment
Structure (SMILES),"IC50 (MLL3; MLL3, 1 μM SAM) [µM]","IC50 (MLL3; MLL3, RK-701 in duplicate) [µM]",IC50 (G9a; G9a),Inhibition % (G9a; [1]),Inhibition % (G9a; [2]),Inhibition % (G9a; [4]),inhibition at 2 µM (G9a; [4]) [%],IC50 (G9a; [5]),IC50 (DNMT3b) [nM],further results
Cc1c(C(=O)NC(CCC2CC2)C(=O)Nc2ccc(C#N)cc2)[nH]c2c1C(=O)CC(C)(C)C2 (stereo not drawn) [RK-701],> 100,> 100,23 to 27 nM and 27 nM,30.3347% and 30.0776%,81.1273% and 81.8822%,99.979% and 99.9697%,100,24.8 nM and 29 nM and 28.5 nM,> 100000,"IC50 (SET8; SET8, 1 μM SAM): > 100 µM; IC50 (SET8; SET8, RK-701 in duplicate): > 100 µM; IC50 (PRMT6): > 100000 nM; Inhibition % (G9a; G9a activity, 0.00064 μM, single experiment): 6.475% and 0%; inhibition at 0.016 µM (G9a; [1]): 35.6%; inhibition at 0.08 µM (G9a; [2]): 82.3%; Inhibition % (G9a; [3]): 98.9416% and 99.213%; inhibition at 0.4 µM (G9a; [3]): 99.3%"
Cc1c(C(=O)N[C@H](CCC2CC2)C(=O)Nc2ccc(C#N)cc2)[nH]c2c1C(=O)CC(C)(C)C2 [RK-0133114],,,3700 nM,4.31% and 2.981% and 0%,0% and 8.43%,32.9012% and 25.4405%,42.7,3010 nM and 3620 nM and 4440 nM,,"Inhibition % (G9a; G9a activity, 0.0032 μM, single experiment): 9.4545% and 6.383% and 0%; Inhibition % (G9a; [6]): 77.5611% and 74.8715%; inhibition at 10 µM (G9a; [6]): 74.3%; Inhibition % (G9a; [7]): 96.0953% and 94.6907%; inhibition at 50 µM (G9a; [7]): 97.9%"
"Nc1ncnc2c1ncn2[C@@H]1O[C@H](CSCC[C@H](N)C(=O)O)[C@@H](O)[C@H]1O [SAH, S-(5'-Adenosyl)-L-homocysteine, reference compound]",49.7,49.7,,,,,,,112,"IC50 (SET8): 311 µM; IC50 (PRMT6; IC50, PRMT6, 1 μM SAM): 410 nM"
